Experiment [1] is described as follows: A Cell Based Secondary Assay To Explore Cytotoxicity of Compounds that Sensitize Mycobacterium Tuberculosis to Beta-Lactam Antibiotics. It counts as functional.
The target of experiment [2] is T1, E3 ubiquitin-protein ligase XIAP (Homo sapiens, UniProt P98170). Nature of the experiment: Counter Screen using XIAP-Bir3 for Chemical Antagonists of Bir1/2 domains of IAP-family anti-apoptotic proteins. [Related pubchem assays (depositor defined):AID1018, AID1449, AID1514, AID1638, AID1749, AID1750, AID488957, AID488963]. In general terms: A counterscreen serves to expose hits that act by an unwanted route or on another target.
T1 sequence (P98170 whole entry): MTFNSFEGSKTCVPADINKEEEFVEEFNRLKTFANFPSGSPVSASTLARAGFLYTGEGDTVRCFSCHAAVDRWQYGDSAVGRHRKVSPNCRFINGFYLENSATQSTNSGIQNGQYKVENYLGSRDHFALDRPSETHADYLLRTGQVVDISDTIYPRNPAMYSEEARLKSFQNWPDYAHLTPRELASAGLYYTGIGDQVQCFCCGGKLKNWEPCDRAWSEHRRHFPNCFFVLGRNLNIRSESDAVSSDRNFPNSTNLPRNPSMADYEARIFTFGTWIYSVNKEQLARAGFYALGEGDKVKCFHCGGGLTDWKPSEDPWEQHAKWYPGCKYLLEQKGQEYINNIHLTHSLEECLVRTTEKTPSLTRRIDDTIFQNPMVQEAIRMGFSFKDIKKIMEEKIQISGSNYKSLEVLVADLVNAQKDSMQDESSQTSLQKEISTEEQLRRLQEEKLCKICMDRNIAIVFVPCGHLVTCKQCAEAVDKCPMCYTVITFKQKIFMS

Experiment [3] has as its target T1, E3 ubiquitin-protein ligase XIAP. The experiment in a line: XIAP antagonists, biochemical, IAP family, fluorescence polarization (AID 1018). The format is functional.
Experiment [4] in a line: Luminescence Cell-Based Dose Response to Identify Activators of Luciferase Translation or Activity in H4-C Neuroglioblastoma Cells. [Related pubchem assays: 1829 (Project Summary), 1814 (Primary HTS)]. The format is functional.
For experiment [5], the target named is T2, Sentrin-specific protease 7 (Homo sapiens, UniProt Q9BQF6).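 Also: Luminescence-based dose-response confirmation of ultra-high-throughput screening hits, measuring inhibition of SENP7.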
T2 sequence (Q9BQF6 whole entry): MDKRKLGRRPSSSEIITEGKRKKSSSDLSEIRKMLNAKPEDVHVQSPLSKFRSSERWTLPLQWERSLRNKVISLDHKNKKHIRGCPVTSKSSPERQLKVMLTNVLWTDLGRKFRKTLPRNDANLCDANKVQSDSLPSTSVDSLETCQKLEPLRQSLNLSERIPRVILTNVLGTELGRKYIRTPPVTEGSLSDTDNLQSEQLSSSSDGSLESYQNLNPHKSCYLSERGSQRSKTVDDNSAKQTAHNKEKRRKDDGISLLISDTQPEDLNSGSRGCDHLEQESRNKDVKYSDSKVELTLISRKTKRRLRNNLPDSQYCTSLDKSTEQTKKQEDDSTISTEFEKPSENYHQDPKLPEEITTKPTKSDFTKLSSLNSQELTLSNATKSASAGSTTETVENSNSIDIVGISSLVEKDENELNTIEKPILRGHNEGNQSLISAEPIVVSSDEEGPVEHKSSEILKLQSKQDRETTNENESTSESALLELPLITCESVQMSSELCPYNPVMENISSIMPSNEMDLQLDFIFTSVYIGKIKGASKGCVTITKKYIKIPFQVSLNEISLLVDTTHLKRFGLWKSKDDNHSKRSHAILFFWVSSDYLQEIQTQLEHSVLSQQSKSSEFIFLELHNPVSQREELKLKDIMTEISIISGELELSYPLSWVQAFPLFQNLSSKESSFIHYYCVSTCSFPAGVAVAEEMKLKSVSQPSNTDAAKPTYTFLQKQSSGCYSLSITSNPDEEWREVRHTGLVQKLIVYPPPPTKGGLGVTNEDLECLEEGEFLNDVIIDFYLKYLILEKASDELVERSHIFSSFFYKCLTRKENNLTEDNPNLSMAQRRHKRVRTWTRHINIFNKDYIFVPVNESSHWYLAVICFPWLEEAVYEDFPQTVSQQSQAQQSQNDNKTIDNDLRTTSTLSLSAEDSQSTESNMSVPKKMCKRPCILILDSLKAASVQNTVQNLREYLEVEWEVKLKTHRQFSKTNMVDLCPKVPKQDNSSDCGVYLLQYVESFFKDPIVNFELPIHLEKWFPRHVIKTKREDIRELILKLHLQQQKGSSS
The format is functional.

The target of a further experiment is T3, Caspase-3 (Homo sapiens, UniProt P42574).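 Also: Dose-response selectivity test against caspase-3 for candidate inhibitors of sentrin-specific proteases (SENPs).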
T3 sequence (P42574 whole entry): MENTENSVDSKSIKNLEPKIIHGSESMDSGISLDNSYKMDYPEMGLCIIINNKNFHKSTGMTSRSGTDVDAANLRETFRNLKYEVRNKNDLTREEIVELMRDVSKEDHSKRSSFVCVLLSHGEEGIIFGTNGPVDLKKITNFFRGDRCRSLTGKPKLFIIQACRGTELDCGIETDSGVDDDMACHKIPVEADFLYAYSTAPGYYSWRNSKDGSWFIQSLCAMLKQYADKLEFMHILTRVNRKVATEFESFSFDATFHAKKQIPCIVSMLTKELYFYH
It counts as functional.

Experiment [6] can be described thus: Luminescence Cell-Based Dose Confirmation to Identify Activators of 5'UTR Stem-Loop Driven Alpha-Synuclein mRNA Translation in H4 Neuroglioblastoma Cells. [Related pubchem assays: 1829 (Project Summary), 1814 (Primary HTS)]. The format is functional.
The target of experiment [7] is T4, Sentrin-specific protease 6 (Homo sapiens, UniProt Q9GZR1).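 Also: Luminescence-based dose-response confirmatory assay of SENP6 inhibition, following up an ultra-high-throughput screen.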
T4 sequence (Q9GZR1 whole entry): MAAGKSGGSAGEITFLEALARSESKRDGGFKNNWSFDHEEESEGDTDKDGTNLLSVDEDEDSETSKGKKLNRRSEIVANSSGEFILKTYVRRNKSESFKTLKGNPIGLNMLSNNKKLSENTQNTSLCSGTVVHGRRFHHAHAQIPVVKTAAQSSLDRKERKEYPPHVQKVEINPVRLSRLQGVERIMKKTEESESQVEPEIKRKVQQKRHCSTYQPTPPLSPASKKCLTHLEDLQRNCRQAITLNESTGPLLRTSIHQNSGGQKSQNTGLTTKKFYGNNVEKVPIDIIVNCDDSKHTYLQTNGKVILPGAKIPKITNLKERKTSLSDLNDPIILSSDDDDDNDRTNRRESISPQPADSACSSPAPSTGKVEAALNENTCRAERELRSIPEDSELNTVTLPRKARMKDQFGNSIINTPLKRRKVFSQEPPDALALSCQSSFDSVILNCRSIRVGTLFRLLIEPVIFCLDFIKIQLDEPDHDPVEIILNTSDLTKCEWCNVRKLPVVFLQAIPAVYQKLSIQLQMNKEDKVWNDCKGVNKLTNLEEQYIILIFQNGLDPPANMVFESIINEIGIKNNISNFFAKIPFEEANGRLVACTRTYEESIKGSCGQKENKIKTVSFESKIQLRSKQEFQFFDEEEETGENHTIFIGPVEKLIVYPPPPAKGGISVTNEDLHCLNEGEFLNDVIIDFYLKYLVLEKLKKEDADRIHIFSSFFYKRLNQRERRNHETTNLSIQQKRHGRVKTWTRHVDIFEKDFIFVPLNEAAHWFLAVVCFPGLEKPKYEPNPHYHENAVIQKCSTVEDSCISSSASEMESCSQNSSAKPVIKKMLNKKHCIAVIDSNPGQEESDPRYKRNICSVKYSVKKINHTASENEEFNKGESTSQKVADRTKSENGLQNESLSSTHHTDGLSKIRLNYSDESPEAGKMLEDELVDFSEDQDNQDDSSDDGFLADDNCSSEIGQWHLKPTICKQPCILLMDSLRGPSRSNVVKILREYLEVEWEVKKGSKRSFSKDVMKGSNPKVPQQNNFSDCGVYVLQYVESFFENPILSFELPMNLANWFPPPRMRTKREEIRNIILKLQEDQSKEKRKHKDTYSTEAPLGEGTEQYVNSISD
The format is functional.

Experiment [8] addresses T5, Sentrin-specific protease 8 (Homo sapiens, UniProt Q96LD8).
T5 sequence (Q96LD8 whole entry): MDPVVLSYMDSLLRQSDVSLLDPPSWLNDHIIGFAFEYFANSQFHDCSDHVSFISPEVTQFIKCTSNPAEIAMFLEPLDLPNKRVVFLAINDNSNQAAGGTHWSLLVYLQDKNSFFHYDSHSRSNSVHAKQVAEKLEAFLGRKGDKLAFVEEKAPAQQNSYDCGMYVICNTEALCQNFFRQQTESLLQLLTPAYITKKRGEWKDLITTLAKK
The format is functional.

The next experiment concerns H4. The experiment in a line: Luminescence Cell-Based Dose Response HTS to Identify Activators of 5'UTR Stem-Loop Driven Prion Protein mRNA Translation in H4 Neuroglioblastoma Cells. [Related pubchem assays: 1829 (Project Summary), 1814 (Primary HTS)]. It counts as functional. As to conditions: Homo sapiens.
A short description of experiment [9]: Luminescence Cell-Based Dose Response to Identify Activators of 5'UTR Stem-Loop Driven Prion Protein mRNA Translation in H4-C Neuroglioblastoma Cells. [Related pubchem assays: 1829 (Project Summary), 1814 (Primary HTS)]. It counts as functional.
Experiment [10] has as its target G-protein coupled receptor 55 (Homo sapiens, UniProt Q9Y2T6). Nature of the experiment: GPR55 antagonists blocking LPI-driven arrestin recruitment, primary screen, imaging, U2OS, beta-arrestin-GFP, LPI agonist (AID 2013).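 Also: antagonist potency measured as reduced agonist-driven arrestin aggregation.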 It counts as functional.
A short description of experiment [11]: inhibitors of intracellular T. cruzi replication, confirmation, NIH3T3 host cells, beta-gal luminescence (AID 2044).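 Also: intracellular parasites grown in NIH/3T3 mouse fibroblasts as host cells; luminescent beta-galactosidase reporter signal from transgenic T. cruzi replicating inside host cells; inhibitors lower the luminescence signal.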 The format is functional, cell-based.
Experiment [12] in a line: cytotoxicity toward NIH3T3 fibroblasts, dose response, counter-screen, cell-based, ATP luminescence, mouse fibroblasts (AID 2010).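 Also: cells exposed to compound for about 90 hours before reading.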 It counts as functional.
Experiment [13] is described as follows: HEp-2 cell cytotoxicity, dose response, cytotoxicity control for RSV inhibitor project, HTS (AID 2410). Particulars: human respiratory syncytial virus. The format is functional.
The nature of experiment [14]: THP-1 cell cytotoxicity, dose response, cytotoxicity control for Vif-APOBEC3G degradation inhibitor project, THP-1 cells (AID 1117359). It counts as functional. As to conditions: Human immunodeficiency virus 1, THP-1.
Experiment [15] addresses T6, Tyrosine-protein phosphatase non-receptor type 7 (Homo sapiens, UniProt P35236).
T6 sequence (P35236 whole entry): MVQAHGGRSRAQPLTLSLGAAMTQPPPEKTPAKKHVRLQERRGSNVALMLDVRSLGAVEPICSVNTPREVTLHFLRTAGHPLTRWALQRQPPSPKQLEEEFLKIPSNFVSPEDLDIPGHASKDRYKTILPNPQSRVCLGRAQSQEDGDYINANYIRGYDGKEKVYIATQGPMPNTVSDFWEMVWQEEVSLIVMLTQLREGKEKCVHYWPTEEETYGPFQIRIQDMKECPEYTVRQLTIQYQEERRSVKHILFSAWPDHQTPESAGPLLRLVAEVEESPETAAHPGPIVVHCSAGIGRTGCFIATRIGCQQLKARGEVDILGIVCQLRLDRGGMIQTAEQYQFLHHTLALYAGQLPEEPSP
Nature of the experiment: redox-dependent HePTP inhibition, mechanism study, biochemical, fluorescence (AID 2068). The format is functional.

The source made the active and inactive calls.

Sequence of G-protein coupled receptor 55 (Q9Y2T6 whole entry): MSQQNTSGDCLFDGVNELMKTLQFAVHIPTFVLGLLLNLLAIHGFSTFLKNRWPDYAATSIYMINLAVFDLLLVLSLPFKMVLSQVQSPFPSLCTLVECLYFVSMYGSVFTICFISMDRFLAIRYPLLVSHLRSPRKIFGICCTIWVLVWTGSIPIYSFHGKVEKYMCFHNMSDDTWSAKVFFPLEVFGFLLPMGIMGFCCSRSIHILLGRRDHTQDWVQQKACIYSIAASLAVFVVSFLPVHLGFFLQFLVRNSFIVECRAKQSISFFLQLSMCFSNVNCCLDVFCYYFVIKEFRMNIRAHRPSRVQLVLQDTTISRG

`Cc1nc(SCC(=O)NCc2ccco2)c2c3c(sc2n1)CCCC3`: the CC50 (in general, the concentration that lowers cell viability or growth by half) in experiment [1] was 19.8 µM (active).
Take `O=C(Nc1ccc(F)cc1)c1ccccc1CC[N+](=O)[O-]`: the IC50 – broadly, the concentration needed to halve the response being measured – in [2] was > 100 µM (inactive); in experiment [3], > 100 µM (not active).
Take `Cc1cccc(-c2cc3nc4c(c(N5CCOCC5)n3n2)CCCC4)c1`: the EC50 (as a rule, the midpoint of the concentration-response curve) is 0.514 µM (active) in [4], 0.228 µM (active) in [6], < 0.1 µM (active) in the experiment on H4 and 0.734 µM (active) in [9]. The concentration for half-maximal inhibition (IC50) was 12.9 µM (active) in experiment [5], 12.4 µM (active) on Caspase-3, 18.5 µM (active) in experiment [7] and 19.4 µM (active) in experiment [8].
In the case of `CCCCN(C)Cc1cc(=O)oc2cc3c(cc12)CCCC3`, in [1], the CC50 is > 40 µM (active).
With `CC1CC(N(C(=O)c2ccco2)c2ccccc2)c2ccccc2N1C(=O)c1ccco1` (centres undefined), the 50% inhibitory concentration (IC50) in experiment [10] was 5.52 µM (active).
In the case of `O=C1CSC(c2ccccc2Br)N1c1ccc(Cl)cn1` (centres undefined), the IC50 in experiment [10] is 4.58 µM (active).
On to `O=C(Nc1ccc(Cl)cc1)N(Cc1cccnc1)Cc1ccco1`, for which the EC50 was 1.1 µM (active) in experiment [11] and > 30 µM (not active) in [12]. For the same compound, the figures for the IC50 in experiment [2] and in [3] were > 100 µM (inactive) and > 100 µM (not active), respectively.
As for `COc1ccccc1NC(=O)CCn1c(=O)c2cccn2c2ccccc21`, in the experiment “cells”, the IC50 is 43.8 µM (active). Also, the CC50 in experiment [13] was > 50 µM (active).
In the case of `CCn1c(=O)c2cc(C(=O)N(C)c3ccccc3F)sc2c2ccccc21`, the results for the concentration giving a half-maximal response (EC50) in experiment [11] and in [12] were 1.04 µM (active) and > 30 µM (not active), respectively. In addition, the CC50 in experiment [1] and in experiment [14] was > 40 µM (active) throughout.
On to `CCOC(=O)c1c(CSC(=N)N)n(C)c2cc(Br)c(OC(C)=O)cc12`, for which the IC50 in [10] is 1.22 µM (active).
For `Cc1ccc2cc(CN(Cc3ccco3)C(=O)c3ccco3)c3nnnn3c2c1`, in the experiment “cells”, the IC50 is 44.3 µM (active). The CC50 in experiment [13] was > 50 µM (active).
On to `C=CCn1c(SCC(=O)NCc2ccco2)nnc1-c1ccc2ccccc2n1`, for which the values for the IC50 in experiment [2] and in experiment [3] were > 100 µM (inactive) and > 100 µM (not active), respectively.
As for `Cc1ccc(Cn2c(SCC(=O)N3CC(=O)Nc4ccccc43)nc3ccccc3c2=O)cc1`, in the experiment “cells”, the IC50 was 42 µM (active). Besides, the CC50 in experiment [13] is 40.2 µM (active).
Regarding `COc1cc2c(cc1OC)-c1cc(NC3CCCC3)nc(=O)n1CC2`, the results for the IC50 in experiment [2] and in [3] were > 100 µM (inactive) and > 100 µM (not active), respectively.
`O=C(Nc1ccc(Cl)cc1)Nc1ccc2nc(-c3ccco3)c(-c3ccco3)nc2c1`: in experiment [15], the IC50 is 0.949 µM (active).
